Assay results taken from the supplement of paper PMC10307832.

Assays:
Test in all cases: relative viability (nuclei count vs DMSO), 5 days (fraction); higher = more cells survive
Vismodegib + Alpelisib = compound: CS(=O)(=O)c1ccc(C(=O)Nc2ccc(Cl)c(-c3ccccn3)c2)c(Cl)c1 [Vismodegib] + Cc1nc(NC(=O)N2CCC[C@H]2C(N)=O)sc1-c1ccnc(C(C)(C)C(F)(F)F)c1 [Alpelisib] (partner 2 µM)
In short: (§1)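 Lung cancer cell lines were pin-tool dosed in 1536-well plates on the day after seeding, with either a lone drug or a fixed anchor-drug dose plus five library-drug doses (not always all listed) in √10 steps. Nuclei were counted on 4× images after 5 days. Relative viability is the ratio of treated-well to vehicle-well nuclei counts, with each value a median of duplicate plates.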

VE-821 + Foretinib = compound: CS(=O)(=O)c1ccc(-c2cnc(N)c(C(=O)Nc3ccccc3)n2)cc1 [VE-821] + COc1cc2c(Oc3ccc(NC(=O)C4(C(=O)Nc5ccc(F)cc5)CC4)cc3F)ccnc2cc1OCCCN1CCOCC1 [Foretinib] (partner 0.25 µM)
In short: as §1

Ruxolitinib + Trametinib = compound: N#CC[C@H](C1CCCC1)n1cc(-c2ncnc3[nH]ccc23)cn1 [Ruxolitinib] + CC(=O)Nc1cccc(-n2c(=O)n(C3CC3)c(=O)c3c(Nc4ccc(I)cc4F)n(C)c(=O)c(C)c32)c1 [Trametinib] (partner 0.02 µM)
In short: as §1

Vismodegib + Navitoclax = compound: CS(=O)(=O)c1ccc(C(=O)Nc2ccc(Cl)c(-c3ccccn3)c2)c(Cl)c1 [Vismodegib] + CC1(C)CCC(c2ccc(Cl)cc2)=C(CN2CCN(c3ccc(C(=O)NS(=O)(=O)c4ccc(N[C@H](CCN5CCOCC5)CSc5ccccc5)c(S(=O)(=O)C(F)(F)F)c4)cc3)CC2)C1 [Navitoclax] (partner 0.5 µM)
In short: as §1

Row | Cell Line | relative viability (Vismodegib + Alpelisib; first compound 0.08 µM) | relative viability (Vismodegib + Alpelisib; first compound 0.253 µM) | relative viability (Vismodegib + Alpelisib; first compound 0.8 µM) | relative viability (Vismodegib + Alpelisib; first compound 2.53 µM) | relative viability (Vismodegib + Alpelisib; first compound 8 µM) | relative viability (VE-821 + Foretinib; first compound 0.08 µM) | relative viability (VE-821 + Foretinib; first compound 0.253 µM) | relative viability (VE-821 + Foretinib; first compound 0.8 µM) | relative viability (VE-821 + Foretinib; first compound 2.53 µM) | relative viability (VE-821 + Foretinib; first compound 8 µM) | relative viability (Ruxolitinib + Trametinib; first compound 0.08 µM) | relative viability (Ruxolitinib + Trametinib; first compound 0.253 µM) | relative viability (Ruxolitinib + Trametinib; first compound 0.8 µM) | relative viability (Ruxolitinib + Trametinib; first compound 2.53 µM) | relative viability (Ruxolitinib + Trametinib; first compound 8 µM) | relative viability (Vismodegib + Navitoclax; first compound 0.08 µM) | relative viability (Vismodegib + Navitoclax; first compound 0.253 µM) | relative viability (Vismodegib + Navitoclax; first compound 0.8 µM) | relative viability (Vismodegib + Navitoclax; first compound 2.53 µM) | relative viability (Vismodegib + Navitoclax; first compound 8 µM)
1 | HARA | 0.833 | 0.863 | 0.817 | 0.8 | 0.788 | 1.06 | 0.888 | 0.798 | 0.812 | 0.574 | 0.639 | 0.622 | 1.07 | 0.269 | 0.775 | 1.13 | 1.15 | 1.16 | 1.11 | 1.14
2 | HCC-15 | 0.894 | 0.822 | 0.871 | 0.866 | 0.83 | 1.16 | 1.1 | 1.1 | 1.27 | 0.98 | 0.348 | 0.382 | 0.395 | 0.322 | 0.355 | 0.675 | 0.678 | 0.689 | 0.665 | 0.676
3 | HCC-44 | 0.787 | 0.771 | 0.717 | 0.799 | 0.818 | – | – | – | – | – | 1.04 | 0.971 | 0.997 | 0.753 | 1.02 | 1.05 | 0.893 | 1.05 | 0.989 | 0.87
4 | HCC-78 | 0.369 | 0.346 | 0.267 | 0.359 | 0.362 | 0.577 | 0.524 | 0.539 | 0.628 | 0.569 | 0.679 | 0.7 | 0.609 | 0.45 | 0.517 | 0.703 | 0.759 | 0.638 | 0.707 | 0.78
5 | IA-LM | 0.778 | 0.728 | 0.966 | 0.582 | 1.04 | 1.2 | 0.957 | 1.15 | 1.04 | 1.03 | – | – | – | – | – | 0.912 | 0.725 | 0.908 | 0.82 | 0.868
6 | LCLC-103H | 1.05 | 0.973 | 0.908 | 0.978 | 0.947 | 0.926 | 0.876 | 0.82 | 0.914 | 0.572 | 0.728 | 0.707 | 0.731 | 0.595 | 0.639 | – | – | – | – | –
7 | NCI-H358 | 0.75 | 0.916 | 0.695 | 0.868 | 1.04 | 0.687 | 0.598 | 0.591 | 0.896 | 0.624 | 0.144 | 0.12 | 0.138 | 0.0972 | 0.148 | – | – | – | – | –
8 | NCI-H522 | – | – | – | – | – | – | – | – | – | – | 0.729 | 0.767 | 0.964 | 0.678 | 0.708 | – | – | – | – | –
9 | NCI-H650 | 1.1 | 1.14 | 1.14 | 1.04 | 1.17 | 1.04 | 1.05 | 1.08 | 1.04 | 1.07 | 0.972 | 1.05 | 0.935 | 0.681 | 0.962 | – | – | – | – | –
10 | NCI-H661 | 0.263 | 0.701 | 0.71 | 0.595 | 0.84 | 0.991 | 1.04 | 0.95 | 1.08 | 0.935 | 0.661 | 0.619 | 0.685 | 0.432 | 0.52 | – | – | – | – | –
11 | NCI-H1299 | 0.984 | 1.04 | 1.06 | 0.973 | 1.04 | 1.1 | 1.08 | 1.04 | 1 | 1 | – | – | – | – | – | 1.03 | 1 | 1.09 | 0.935 | 1.01
12 | NCI-H1563 | 0.896 | 0.88 | 1.01 | 0.889 | 1.02 | 0.937 | 0.903 | 0.769 | 0.876 | 0.83 | – | – | – | – | – | – | – | – | – | –
13 | NCI-H1623 | – | – | – | – | – | 0.936 | 0.816 | 0.741 | 0.867 | 0.73 | – | – | – | – | – | – | – | – | – | –
14 | NCI-H1648 | – | – | – | – | – | – | – | – | – | – | 0.548 | 0.517 | 0.62 | 0.416 | 0.74 | – | – | – | – | –
15 | NCI-H1650 | – | – | – | – | – | 1.15 | 1.11 | 0.718 | 1.39 | 0.692 | 0.331 | 0.597 | 0.628 | 0.27 | 0.541 | 1.14 | 1.27 | 1.2 | 1.17 | 1.14
16 | NCI-H1703 | 0.315 | 0.311 | 0.407 | 0.306 | 0.422 | 0.33 | 0.3 | 0.329 | 0.364 | 0.404 | – | – | – | – | – | 1.02 | 1.05 | 0.986 | 1.23 | 1.47
17 | NCI-H1792 | 0.608 | 0.687 | 0.615 | 0.667 | 0.647 | – | – | – | – | – | 0.38 | 0.498 | 0.407 | 0.347 | 0.359 | 0.634 | 0.655 | 0.588 | 0.616 | 0.619
18 | NCI-H2342 | – | – | – | – | – | 1.25 | 0.917 | 0.951 | 1.1 | 1 | 0.762 | 0.872 | 0.808 | 0.807 | 0.816 | – | – | – | – | –
19 | SW 900 | – | – | – | – | – | 0.848 | 0.997 | 0.836 | 0.916 | 0.681 | 0.597 | 0.742 | 1.09 | 0.614 | 0.902 | – | – | – | – | –
